According to the supplement of paper PMC10307832:

How the values were obtained:
Assay in all cases: relative viability (nuclei count vs DMSO), 5 days (fraction); higher = more cells survive
[1] = compound: O[C@H]1CC[C@H](Nc2ncc3nc(Nc4c(F)cc(F)cc4F)n([C@H]4CCOC4)c3n2)CC1 [Tanzisertib] + CS(=O)(=O)CCNCc1ccc(-c2ccc3ncnc(Nc4ccc(OCc5cccc(F)c5)c(Cl)c4)c3c2)o1 [Lapatinib] (partner 2 µM)
In short: (§1)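 Relative viability divides the nuclei count in treated wells by that in vehicle wells. Lung cancer cell lines were seeded in 1536-well plates, dosed by pin tool the next day, and fixed and stained after 5 days in one step with final 0.05% Triton X-100, 1% formaldehyde and 1 ug/ml Hoechst. Dosing was a single drug or a fixed anchor-drug dose plus five library-drug doses (not always all listed) in √10 steps, and values are medians of duplicate plates imaged at 4×.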

[2] = compound: O[C@H]1CC[C@H](Nc2ncc3nc(Nc4c(F)cc(F)cc4F)n([C@H]4CCOC4)c3n2)CC1 [Tanzisertib] + CC(C)C[C@H](NC(=O)[C@H](Cc1ccccc1)NC(=O)c1cnccn1)B(O)O [Bortezomib] (partner 0.002 µM)
In short: as §1

[3] = compound: O[C@H]1CC[C@H](Nc2ncc3nc(Nc4c(F)cc(F)cc4F)n([C@H]4CCOC4)c3n2)CC1 [Tanzisertib] + Cc1cc(Nc2cc(N3CCN(C)CC3)nc(Sc3ccc(NC(=O)C4CC4)cc3)n2)n[nH]1 [Tozasertib] (partner 0.1 µM)
In short: as §1

[4] = compound: C[C@@H](N)c1ccc(C(=O)Nc2ccnc3[nH]ccc23)cc1 + Nc1nc2[nH]cc(CCc3ccc(C(=O)N[C@@H](CCC(=O)O)C(=O)O)cc3)c2c(=O)[nH]1 [Pemetrexed] (partner 0.2 µM)
In short: as §1

Cell Line	relative viability ([1]; first compound 0.08 µM)	relative viability ([1]; first compound 0.253 µM)	relative viability ([1]; first compound 0.8 µM)	relative viability ([1]; first compound 2.53 µM)	relative viability ([1]; first compound 8 µM)	relative viability ([2]; first compound 0.08 µM)	relative viability ([2]; first compound 0.253 µM)	relative viability ([2]; first compound 0.8 µM)	relative viability ([2]; first compound 2.53 µM)	relative viability ([2]; first compound 8 µM)	relative viability ([3]; first compound 0.08 µM)	relative viability ([3]; first compound 0.253 µM)	relative viability ([3]; first compound 0.8 µM)	relative viability ([3]; first compound 2.53 µM)	relative viability ([3]; first compound 8 µM)	relative viability ([4]; first compound 0.1265 µM)	relative viability ([4]; first compound 0.4 µM)	relative viability ([4]; first compound 1.265 µM)	relative viability ([4]; first compound 4 µM)	relative viability ([4]; first compound 0.04 µM)
LU99A	1.1	0.934	0.934	1.11	1.2	1.29	1.07	1.08	1.19	1.31	0.256	0.284	0.276	0.259	0.298	0.189	0.191	0.23	0.188	
BEN	0.773	0.806	0.721	0.795	0.712	0.944	0.954	0.781	0.85	0.729	0.464	0.451	0.621	0.418	0.407	0.711	0.701	0.877	0.634	0.556
SK-LU-1	1.1	0.869	0.855	0.994	0.816	1.07	1.19	1.3	1.18	0.493	0.33	0.316	0.263	0.309	0.319	0.892	0.933	0.809	0.558	0.952
NCI-H1975	1.06	0.944	0.87	0.942	0.912	0.428	0.467	0.371	0.401	0.347	0.845	0.762	0.838	0.668	0.458	0.31	0.265	0.228	0.211	0.313
RERF-LC-KJ	0.872	0.873	0.884	0.8	0.892	1.17	1.01	1.04	1.07	1.02	0.386	0.554	0.61	0.383	0.442	0.486	0.472	0.47	0.424	0.496
HCC-78	0.72	0.7	0.827	0.786	0.303	0.485	0.436	0.548	0.416	0.62	0.493	0.392	0.422	0.389	0.329	0.928	0.906	0.98	0.963	0.942
NCI-H1915	0.994	1	0.897	1.02	0.947	0.992	1.07	1	0.978	0.989	0.401	0.457	0.373	0.384	0.322	0.501	0.541		0.449	
